# Results as given in patent US20220281848A1, “PYRAZOLE-SUBSTITUTED PYRROLIDINONES AS HERBICIDES” (FMC Corporation, priority 2019, published 2022).
# Assays:
# wheat = assay: Test D post-emergence, wheat seed treated with a herbicide safener; type: in vivo; details: "Cereals" Postemergent
# In short: (§1)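 Damage was rated visually from 0 (none) to 100 (total), at 20 DAA for pre-emergence and 15 d for post-emergence. Plants grew from safener-treated seed in a glasshouse at 24/18° C. or 20/16° C. day/night, 65% humidity, watered twice daily.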
# plants = assay: Test D post-emergence, other plants of Tables D2 and D4; type: in vivo; details: for ALOMY damage rating (100=total damage to plant; 0=no damage to plant) / AVEFA damage rating (100=total damage to plant; 0=no damage to plant) / BEAVA damage rating (100=total damage to plant; 0=no damage to plant) / BROTE damage rating (100=total damage to plant; 0=no damage to plant) / BRSNN damage rating (100=total damage to plant; 0=no damage to plant) / CHEAL damage rating (100=total damage to plant; 0=no damage to plant) / GALAP damage rating (100=total damage to plant; 0=no damage to plant) / HORVW damage rating (100=total damage to plant; 0=no damage to plant) / KCHSC damage rating (100=total damage to plant; 0=no damage to plant) / LOLPE damage rating (100=total damage to plant; 0=no damage to plant) / POAAN damage rating (100=total damage to plant; 0=no damage to plant) / POLCO damage rating (100=total damage to plant; 0=no damage to plant) / STEME damage rating (100=total damage to plant; 0=no damage to plant) / VERPE damage rating (100=total damage to plant; 0=no damage to plant): "Cereals" Postemergent, evaluated after 15 d
# In short: as §1
# [1] = post-emergence, rate 130, evaluated after 15 d
# [2] = post-emergence, rate 250, evaluated after 15 d
# [3] = post-emergence, rate 500, evaluated after 15 d
structure (smiles),measurement,setting,value
CN1C[C@H](c2nn(C)c3c(F)cccc23)[C@@H](C(=O)Nc2cccc(F)c2F)C1=O [Compound 2],TRZAW damage rating (100=total damage to plant; 0=no damage to plant),"wheat; Rates 130, evaluated after 15 d",20
same,TRZAW damage rating (100=total damage to plant; 0=no damage to plant),"wheat; Rates 250, evaluated after 15 d",20
same,TRZAW damage rating (100=total damage to plant; 0=no damage to plant),"wheat; Rates 500, evaluated after 15 d",60
same,ALOMY damage rating (100=total damage to plant; 0=no damage to plant),plants; Rates 130,0
same,ALOMY damage rating (100=total damage to plant; 0=no damage to plant),plants; Rates 250,10
same,ALOMY damage rating (100=total damage to plant; 0=no damage to plant),plants; Rates 500,30
same,AVEFA damage rating (100=total damage to plant; 0=no damage to plant),plants; Rates 130,0
same,AVEFA damage rating (100=total damage to plant; 0=no damage to plant),plants; Rates 250,10
same,AVEFA damage rating (100=total damage to plant; 0=no damage to plant),plants; Rates 500,40
same,BEAVA damage rating (100=total damage to plant; 0=no damage to plant),plants; Rates 130,10
same,BEAVA damage rating (100=total damage to plant; 0=no damage to plant),plants; Rates 250,20
same,BEAVA damage rating (100=total damage to plant; 0=no damage to plant),plants; Rates 500,10
same,BROTE damage rating (100=total damage to plant; 0=no damage to plant),plants; Rates 130,0
same,BROTE damage rating (100=total damage to plant; 0=no damage to plant),plants; Rates 250,0
same,BROTE damage rating (100=total damage to plant; 0=no damage to plant),plants; Rates 500,30
same,BRSNN damage rating (100=total damage to plant; 0=no damage to plant),plants; Rates 130,40
same,BRSNN damage rating (100=total damage to plant; 0=no damage to plant),plants; Rates 250,50
same,BRSNN damage rating (100=total damage to plant; 0=no damage to plant),plants; Rates 500,40
same,CHEAL damage rating (100=total damage to plant; 0=no damage to plant),plants; Rates 250,0
same,CHEAL damage rating (100=total damage to plant; 0=no damage to plant),plants; Rates 500,20
same,GALAP damage rating (100=total damage to plant; 0=no damage to plant),plants; Rates 130,0
same,GALAP damage rating (100=total damage to plant; 0=no damage to plant),plants; Rates 250,10
same,GALAP damage rating (100=total damage to plant; 0=no damage to plant),plants; Rates 500,0
same,HORVW damage rating (100=total damage to plant; 0=no damage to plant),plants; Rates 130,0
same,HORVW damage rating (100=total damage to plant; 0=no damage to plant),plants; Rates 250,20
same,HORVW damage rating (100=total damage to plant; 0=no damage to plant),plants; Rates 500,30
same,KCHSC damage rating (100=total damage to plant; 0=no damage to plant),plants; Rates 130,0
same,KCHSC damage rating (100=total damage to plant; 0=no damage to plant),plants; Rates 250,0
same,KCHSC damage rating (100=total damage to plant; 0=no damage to plant),plants; Rates 500,0
same,LOLPE damage rating (100=total damage to plant; 0=no damage to plant),plants; Rates 130,0
same,LOLPE damage rating (100=total damage to plant; 0=no damage to plant),plants; Rates 250,0
same,LOLPE damage rating (100=total damage to plant; 0=no damage to plant),plants; Rates 500,0
same,POAAN damage rating (100=total damage to plant; 0=no damage to plant),plants; Rates 130,20
same,POAAN damage rating (100=total damage to plant; 0=no damage to plant),plants; Rates 250,70
same,POAAN damage rating (100=total damage to plant; 0=no damage to plant),plants; Rates 500,80
same,POLCO damage rating (100=total damage to plant; 0=no damage to plant),plants; Rates 130,0
same,POLCO damage rating (100=total damage to plant; 0=no damage to plant),plants; Rates 250,20
same,POLCO damage rating (100=total damage to plant; 0=no damage to plant),plants; Rates 500,40
same,STEME damage rating (100=total damage to plant; 0=no damage to plant),plants; Rates 130,0
same,STEME damage rating (100=total damage to plant; 0=no damage to plant),plants; Rates 250,0
same,STEME damage rating (100=total damage to plant; 0=no damage to plant),plants; Rates 500,0
same,VERPE damage rating (100=total damage to plant; 0=no damage to plant),plants; Rates 130,0
same,VERPE damage rating (100=total damage to plant; 0=no damage to plant),plants; Rates 250,10
same,VERPE damage rating (100=total damage to plant; 0=no damage to plant),plants; Rates 500,0
same,"damage to plant (100=total damage to plant; 0=no damage to plant), ABUTH","plants; post-emergence, ABUTH, rate 500, evaluated after 15 d",0
same,"damage to plant (100=total damage to plant; 0=no damage to plant), AMARE",plants; [1],0
same,"damage to plant (100=total damage to plant; 0=no damage to plant), AMARE",plants; [2],10
same,"damage to plant (100=total damage to plant; 0=no damage to plant), AMARE",plants; [3],30
same,"damage to plant (100=total damage to plant; 0=no damage to plant), BIDPI",plants; [1],0
same,"damage to plant (100=total damage to plant; 0=no damage to plant), BIDPI",plants; [2],0
same,"damage to plant (100=total damage to plant; 0=no damage to plant), BIDPI",plants; [3],10
same,"damage to plant (100=total damage to plant; 0=no damage to plant), BRAPL",plants; [1],70
same,"damage to plant (100=total damage to plant; 0=no damage to plant), BRAPL",plants; [2],80
same,"damage to plant (100=total damage to plant; 0=no damage to plant), BRAPL",plants; [3],80
same,"damage to plant (100=total damage to plant; 0=no damage to plant), CYPES",plants; [1],0
same,"damage to plant (100=total damage to plant; 0=no damage to plant), CYPES",plants; [2],0
same,"damage to plant (100=total damage to plant; 0=no damage to plant), CYPES",plants; [3],0
same,"damage to plant (100=total damage to plant; 0=no damage to plant), DIGSA",plants; [1],60
same,"damage to plant (100=total damage to plant; 0=no damage to plant), DIGSA",plants; [2],70
same,"damage to plant (100=total damage to plant; 0=no damage to plant), DIGSA",plants; [3],70
same,"damage to plant (100=total damage to plant; 0=no damage to plant), ECHCG",plants; [2],80
same,"damage to plant (100=total damage to plant; 0=no damage to plant), ECHCG",plants; [3],80
same,"damage to plant (100=total damage to plant; 0=no damage to plant), ELEIN",plants; [1],0
same,"damage to plant (100=total damage to plant; 0=no damage to plant), ELEIN",plants; [2],0
same,"damage to plant (100=total damage to plant; 0=no damage to plant), ELEIN",plants; [3],0
same,"damage to plant (100=total damage to plant; 0=no damage to plant), EPHHL",plants; [1],0
same,"damage to plant (100=total damage to plant; 0=no damage to plant), EPHHL",plants; [2],10
same,"damage to plant (100=total damage to plant; 0=no damage to plant), EPHHL",plants; [3],40
same,"damage to plant (100=total damage to plant; 0=no damage to plant), GLXMA",plants; [1],0
same,"damage to plant (100=total damage to plant; 0=no damage to plant), GLXMA",plants; [2],0
same,"damage to plant (100=total damage to plant; 0=no damage to plant), GLXMA",plants; [3],10
same,"damage to plant (100=total damage to plant; 0=no damage to plant), IPOHE",plants; [1],10
same,"damage to plant (100=total damage to plant; 0=no damage to plant), IPOHE",plants; [2],20
same,"damage to plant (100=total damage to plant; 0=no damage to plant), IPOHE",plants; [3],30
same,"damage to plant (100=total damage to plant; 0=no damage to plant), ORYSA",plants; [1],0
same,"damage to plant (100=total damage to plant; 0=no damage to plant), ORYSA",plants; [2],0
same,"damage to plant (100=total damage to plant; 0=no damage to plant), ORYSA",plants; [3],10
same,"damage to plant (100=total damage to plant; 0=no damage to plant), PANMI",plants; [1],0
same,"damage to plant (100=total damage to plant; 0=no damage to plant), PANMI",plants; [2],0
same,"damage to plant (100=total damage to plant; 0=no damage to plant), PANMI",plants; [3],0
same,"damage to plant (100=total damage to plant; 0=no damage to plant), SETFA",plants; [1],70
same,"damage to plant (100=total damage to plant; 0=no damage to plant), SETFA",plants; [2],70
same,"damage to plant (100=total damage to plant; 0=no damage to plant), SETFA",plants; [3],80
same,"damage to plant (100=total damage to plant; 0=no damage to plant), SIDSP",plants; [1],0
same,"damage to plant (100=total damage to plant; 0=no damage to plant), SIDSP",plants; [2],0
same,"damage to plant (100=total damage to plant; 0=no damage to plant), SIDSP",plants; [3],0
same,"damage to plant (100=total damage to plant; 0=no damage to plant), SORVU",plants; [1],0
same,"damage to plant (100=total damage to plant; 0=no damage to plant), SORVU",plants; [2],0
same,"damage to plant (100=total damage to plant; 0=no damage to plant), SORVU",plants; [3],0
